# Experimental data: patent US20090074815A1, “Immunomodulator Compounds as Vaccine Enhancers” (SCICLONE PHARMACEUTICALS, INC., priority 2005, published 2009)
# What was measured:
# [1] = test system: IFN-γ production by OvA-stimulated splenocytes; assay: OvA-stimulated production of IFN-γ by splenocytes of OvA-immunized mice; assay type: in vivo
# splenocytes = assay: OvA-induced proliferation of splenocytes of OvA-immunized mice; assay type: in vivo; conditions: for Proliferation of splenocytes, Spontaneous, cpm, M ± SD / Proliferation of splenocytes, SI / Proliferation of splenocytes, cpm, M ± SD: OvA/FA
# Procedure: Assessment of Mitogen- and Antigen-Induced Proliferation: […] Antigen-specific proliferation was studied by stimulating thymocytes and splenoctyes in vitro with different concentrations of OvA for 96 h. Twenty (20) to twenty-four (24) hours prior to completion of incubation, 3H-labeled thymidine (5 μCi/ml) was added to the cells. The cells were then transferred to fiberglass filters with a Titertek® semi-automatic cell harvester. Thymidine uptake was measured using a RackBeta 1217 (Wallac) liquid scintillation β-counter. For quantitative analysis of proliferation, the stimulation index (SI) was calculated as a ratio of the intensity of label inclusion in the stimulated cells to that in non-stimulated cells.
# [2] = test system: IL-2 production by ConA-stimulated thymic cells; assay: IL-2 production by ConA-stimulated thymic cells (IL-2-dependent CTLL-2 bioassay); assay type: in vivo, mice
# Excerpt: Considering that significant enhancement of proliferation by SCV-07 might be due to its influence on IL-2 production, IL-2 activity was studied with the IL-2-dependent CTLL-2 line.
# [3] = OvA/Alum, 1.0 μg/kg i/p, OvA 50 μg/ml
# [4] = OvA/Alum, 1.0 μg/kg i/p, OvA 100 μg/ml
# [5] = 10.0 μg/kg per os, OvA 10 μg/ml
# [6] = 10.0 μg/kg per os, OvA 50 μg/ml
smiles,measurement,setting,value
"N[C@H](CCC(=O)N[C@@H](Cc1c[nH]c2ccccc12)C(=O)O)C(=O)O [SCV-07, γ-D-glutamyl-L-tryptophan]",Production of IFN-γ by splenocytes,[1]; [3],7982 pg/mL
same,"Production of IFN-γ by splenocytes, % (% of control)",[1]; [3],112.0%
same,Production of IFN-γ by splenocytes,[1]; [4],8155 pg/mL
same,"Production of IFN-γ by splenocytes, % (% of control)",[1]; [4],114.4%
same,Production of IFN-γ by splenocytes,"[1]; OvA/Alum, 1.0 μg/kg per os, OvA 0 μg/ml",5620 pg/mL
same,Production of IFN-γ by splenocytes,"[1]; OvA/Alum, 1.0 μg/kg per os, OvA 10 μg/ml",5523 pg/mL
same,Production of IFN-γ by splenocytes,"[1]; OvA/Alum, 1.0 μg/kg per os, OvA 25 μg/ml",5795 pg/mL
same,Production of IFN-γ by splenocytes,"[1]; OvA/Alum, 1.0 μg/kg per os, OvA 50 μg/ml",5795 pg/mL
same,Production of IFN-γ by splenocytes,"[1]; OvA/Alum, 1.0 μg/kg per os, OvA 100 μg/ml",6860 pg/mL
same,Production of IFN-γ by splenocytes,"[1]; OvA/Alum, 10.0 μg/kg per os, OvA 0 μg/ml",4266 pg/mL
same,Production of IFN-γ by splenocytes,"[1]; OvA/Alum, 10.0 μg/kg per os, OvA 10 μg/ml",2045 pg/mL
same,Production of IFN-γ by splenocytes,"[1]; OvA/Alum, 10.0 μg/kg per os, OvA 25 μg/ml",5066 pg/mL
same,Production of IFN-γ by splenocytes,"[1]; OvA/Alum, 10.0 μg/kg per os, OvA 50 μg/ml",5066 pg/mL
same,Production of IFN-γ by splenocytes,"[1]; OvA/Alum, 10.0 μg/kg per os, OvA 100 μg/ml",5976 pg/mL
same,"Production of IFN-γ by splenocytes, % (% of control)","[1]; OvA/FA, 0.1 μg/kg i/p, OvA 10 μg/ml",126.6%
same,"Production of IFN-γ by splenocytes, % (% of control)","[1]; OvA/FA, 0.1 μg/kg i/p, OvA 25 μg/ml",89.3%
same,"Production of IFN-γ by splenocytes, % (% of control)","[1]; OvA/FA, 0.1 μg/kg i/p, OvA 50 μg/ml",118.0%
same,"Production of IFN-γ by splenocytes, % (% of control)","[1]; OvA/FA, 0.1 μg/kg i/p, OvA 100 μg/ml",124.3%
same,"Production of IFN-γ by splenocytes, % (% of control)","[1]; OvA/FA, 1.0 μg/kg i/p, OvA 10 μg/ml",139.0%
same,"Production of IFN-γ by splenocytes, % (% of control)","[1]; OvA/FA, 1.0 μg/kg i/p, OvA 25 μg/ml",112.2%
same,"Production of IFN-γ by splenocytes, % (% of control)","[1]; OvA/FA, 1.0 μg/kg i/p, OvA 50 μg/ml",99.0%
same,"Production of IFN-γ by splenocytes, % (% of control)","[1]; OvA/FA, 1.0 μg/kg i/p, OvA 100 μg/ml",89.6%
same,proliferation of splenocytes versus control group,"splenocytes; OvA/Alum, data not shown",No significant differences
same,"Proliferation of splenocytes, Spontaneous, cpm, M ± SD",splenocytes; 0.1 μg/kg i/p,10726 ± 1947 cpm
same,"Proliferation of splenocytes, SI","splenocytes; 0.1 μg/kg i/p, OvA 10 μg/ml",1.09
same,"Proliferation of splenocytes, cpm, M ± SD","splenocytes; 0.1 μg/kg i/p, OvA 10 μg/ml",11683 ± 2285 cpm
same,"Proliferation of splenocytes, SI","splenocytes; 0.1 μg/kg i/p, OvA 50 μg/ml",1.32
same,"Proliferation of splenocytes, cpm, M ± SD","splenocytes; 0.1 μg/kg i/p, OvA 50 μg/ml",14195 ± 3304 cpm
same,"Proliferation of splenocytes, Spontaneous, cpm, M ± SD",splenocytes; 0.1 μg/kg per os,8786 ± 1259 cpm
same,"Proliferation of splenocytes, SI","splenocytes; 0.1 μg/kg per os, OvA 10 μg/ml",1.29
same,"Proliferation of splenocytes, cpm, M ± SD","splenocytes; 0.1 μg/kg per os, OvA 10 μg/ml",11304 ± 1317 cpm
same,"Proliferation of splenocytes, SI","splenocytes; 0.1 μg/kg per os, OvA 50 μg/ml",1.36
same,"Proliferation of splenocytes, cpm, M ± SD","splenocytes; 0.1 μg/kg per os, OvA 50 μg/ml",11923 ± 1623 cpm
same,"Proliferation of splenocytes, Spontaneous, cpm, M ± SD",splenocytes; 1.0 μg/kg i/p,9760 ± 1650 cpm
same,"Proliferation of splenocytes, SI","splenocytes; 1.0 μg/kg i/p, OvA 10 μg/ml",1.05
same,"Proliferation of splenocytes, cpm, M ± SD","splenocytes; 1.0 μg/kg i/p, OvA 10 μg/ml",10260 ± 2808 cpm
same,"Proliferation of splenocytes, SI","splenocytes; 1.0 μg/kg i/p, OvA 50 μg/ml",1.67
same,"Proliferation of splenocytes, cpm, M ± SD","splenocytes; 1.0 μg/kg i/p, OvA 50 μg/ml",16313 ± 1057 cpm
same,"Proliferation of splenocytes, Spontaneous, cpm, M ± SD",splenocytes; 1.0 μg/kg per os,7013 ± 1698 cpm
same,"Proliferation of splenocytes, SI","splenocytes; 1.0 μg/kg per os, OvA 10 μg/ml",1.26
same,"Proliferation of splenocytes, cpm, M ± SD","splenocytes; 1.0 μg/kg per os, OvA 10 μg/ml",8864 ± 2675 cpm
same,"Proliferation of splenocytes, SI","splenocytes; 1.0 μg/kg per os, OvA 50 μg/ml",1.49
same,"Proliferation of splenocytes, cpm, M ± SD","splenocytes; 1.0 μg/kg per os, OvA 50 μg/ml",10457 ± 1740 cpm
same,"Proliferation of splenocytes, Spontaneous, cpm, M ± SD",splenocytes; 10.0 μg/kg per os,10665 ± 887 cpm
same,"Proliferation of splenocytes, SI",splenocytes; [5],1.27
same,"Proliferation of splenocytes, cpm, M ± SD",splenocytes; [5],13585 ± 1102 cpm
same,"Proliferation of splenocytes, SI",splenocytes; [6],1.21
same,"Proliferation of splenocytes, cpm, M ± SD",splenocytes; [6],12903 ± 881 cpm
same,"IL-2 production (U/ml), M ± SD","[2]; ConA 1 μg/ml, 0.01 μg/kg per os",0.00 ± 0.00 U/ml
same,"IL-2 production (U/ml), M ± SD","[2]; ConA 1 μg/ml, 0.1 μg/kg i/p",0.25 ± 0.08 U/ml
same,"IL-2 production (U/ml), M ± SD","[2]; ConA 1 μg/ml, 0.1 μg/kg per os",0.10 ± 0.13 U/ml
same,"IL-2 production (U/ml), M ± SD","[2]; ConA 1 μg/ml, 1.0 μg/kg i/p",0.92 ± 0.06 U/ml
same,"IL-2 production (U/ml), M ± SD","[2]; ConA 1 μg/ml, 1.0 μg/kg per os",1.06 ± 0.37 U/ml
same,"IL-2 production (U/ml), M ± SD","[2]; ConA 1 μg/ml, 10.0 μg/kg per os",0.25 ± 0.12 U/ml
same,"IL-2 production (U/ml), M ± SD","[2]; ConA 1 μg/ml, 100.0 μg/kg per os",0.31 ± 0.15 U/ml
same,"IL-2 production (U/ml), M ± SD","[2]; ConA 2 μg/ml, 0.01 μg/kg per os",0.44 ± 0.11 U/ml
same,"IL-2 production (U/ml), M ± SD","[2]; ConA 2 μg/ml, 0.1 μg/kg i/p",1.40 ± 0.38 U/ml
same,"IL-2 production (U/ml), M ± SD","[2]; ConA 2 μg/ml, 0.1 μg/kg per os",1.00 ± 0.13 U/ml
same,"IL-2 production (U/ml), M ± SD","[2]; ConA 2 μg/ml, 1.0 μg/kg i/p",1.60 ± 0.15 U/ml
same,"IL-2 production (U/ml), M ± SD","[2]; ConA 2 μg/ml, 1.0 μg/kg per os",3.31 ± 0.01 U/ml
same,"IL-2 production (U/ml), M ± SD","[2]; ConA 2 μg/ml, 10.0 μg/kg per os",0.39 ± 0.12 U/ml
same,"IL-2 production (U/ml), M ± SD","[2]; ConA 2 μg/ml, 100.0 μg/kg per os",1.19 ± 0.30 U/ml
